Legend:
[1] = biological target: PARP-1 enzyme (Homo sapiens (Human), UniProt P09874); test: PARP1 enzyme activity test (BPS Bioscience chemiluminescence kit); assay type: biochemical
Text: Inhibition %=(1−(RLUsample−RLUmin)/(RLUmax−RLUmin))×100% (formula 1)

[2] = test system: breast tumor cells MDA-MB-436; test: MDA-MB-436 cell activity test (CellTiter-Glo, 7 days); assay type: cell-based; details: Homo sapiens, MDA-MB-436, 168 h, 7 days incubation; for inhibition at 10 µM: read-out: MDA-MB-436 Max inh. % 10 μM; for IC50: read-out: MDA-MB-436 cell inhibitory activity IC50
Protocol: Breast tumor cells MDA-MB-436 were purchased from ATCC, the culture medium was Leibovitz's L-15+10% FBS, and the cells were cultured in a CO2-free incubator at 37° C. On day 1, the cells in the exponential growth phase were collected, and the cell suspension was adjusted to 4000 cells/135 μL with the culture medium. 135 μL of the cell suspension was added to each well of a 96-well cell culture plate and incubated overnight. On day 2, compounds at different concentrations were added, and the plate was placed in the incubator and incubated for 7 days. After the incubation was completed, according to operation instructions for a CellTiter-Glo kit (Promega, G7573), 75 μL of CTG solution, which was already pre-melted and equilibrated to room temperature, was added to each well, and the mixture was uniformly mixed for 2 min using a microplate shaker. The plate was placed at room temperature for 10 min, and then […] were measured using an Envision2104 plate reader (PerkinElmer). The inhibition rate was calculated using formula (1), where RLUcompound was the readout of the drug treated group, RLUcontrol was the average value of the vehicle control group, and RLUblank was the average value of the cell-free well. The IC50 value was calculated using GraphPad Prism software.

Chain of PARP-1 enzyme (P09874 whole entry): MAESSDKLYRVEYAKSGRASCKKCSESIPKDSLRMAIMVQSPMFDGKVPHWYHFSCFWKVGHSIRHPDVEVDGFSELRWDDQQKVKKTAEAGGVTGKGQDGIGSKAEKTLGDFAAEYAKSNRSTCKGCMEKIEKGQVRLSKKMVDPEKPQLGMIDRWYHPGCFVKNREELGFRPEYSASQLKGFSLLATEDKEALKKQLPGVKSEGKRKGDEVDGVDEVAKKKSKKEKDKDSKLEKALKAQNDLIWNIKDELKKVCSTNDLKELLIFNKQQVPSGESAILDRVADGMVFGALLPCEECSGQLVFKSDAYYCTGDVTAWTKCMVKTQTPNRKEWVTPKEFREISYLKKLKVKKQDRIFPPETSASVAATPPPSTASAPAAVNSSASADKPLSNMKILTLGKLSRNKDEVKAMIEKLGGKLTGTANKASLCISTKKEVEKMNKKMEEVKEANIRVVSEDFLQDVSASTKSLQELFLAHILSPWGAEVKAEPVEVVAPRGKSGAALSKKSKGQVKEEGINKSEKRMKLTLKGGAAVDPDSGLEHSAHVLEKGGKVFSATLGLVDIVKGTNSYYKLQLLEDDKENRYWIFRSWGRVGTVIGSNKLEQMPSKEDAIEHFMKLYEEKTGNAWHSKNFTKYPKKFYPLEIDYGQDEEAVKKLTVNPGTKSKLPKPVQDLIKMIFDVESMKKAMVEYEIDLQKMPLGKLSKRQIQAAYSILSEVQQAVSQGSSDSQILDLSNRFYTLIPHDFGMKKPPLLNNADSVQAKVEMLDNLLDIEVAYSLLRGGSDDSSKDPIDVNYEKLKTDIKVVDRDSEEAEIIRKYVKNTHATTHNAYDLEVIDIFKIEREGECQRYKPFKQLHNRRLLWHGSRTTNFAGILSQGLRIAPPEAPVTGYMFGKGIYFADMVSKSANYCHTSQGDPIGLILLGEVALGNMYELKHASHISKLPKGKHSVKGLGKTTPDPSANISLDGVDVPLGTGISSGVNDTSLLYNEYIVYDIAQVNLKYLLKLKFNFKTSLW

SMILES | IC50 [1] [nM] | IC50 [2] [nM] | inhibition at 10 µM [2] [%]
CCc1cc2ncc(CN3CCN(c4ccc(NC(=O)C5CC(F)(F)C5)nc4)CC3)cc2[nH]c1=O [Compound 26, N-(5-(4-((7-ethyl-6-oxo-5,6-dihydro-1,5-naphthyridin-3-yl)methyl)piperazin-1-yl)pyridin-2-yl)-3,3-difluorocyclobutane-1-carboxamide] | 0.48 | 18 | 86.3
CCc1cc2ncc(CN3CCN(c4ccc(NC(=O)OC5CC5)nc4)CC3)cc2[nH]c1=O [Compound 37, Cyclopropyl(5-(4-((7-ethyl-6-oxo-5,6-dihydro-1,5-naphthyridin-3-yl)methyl)piperazin-1-yl)pyridin-2-yl)carbamate] | 0.96 | 18.9 | 93.7
CCc1cc2ncc(CN3CCN(c4ccc(NC(=O)[C@H]5CC5(F)F)nc4)CC3)cc2[nH]c1=O (single isomer, unassigned) [Compound 51] | 0.66 | 8.5 | 95.6
CCc1cc2ncc(CN3CCN(c4ccc(NC(=O)C5CC5)nc4)CC3)cc2[nH]c1=O [Compound 9, N-(5-(4-((7-ethyl-6-oxo-5,6-dihydro-1,5-naphthyridin-3-yl)methyl)piperazin-1-yl)pyridin-2-yl)cyclopropanecarboxamide] | 0.73 | 6 | 86.2
CCc1cc2ncc(CN3CCN(c4ccc(C(=O)NC5CC6(CCC6)C5)nc4)CC3)cc2[nH]c1=O [Compound 38, 5-(4-((7-ethyl-6-oxo-5,6-dihydro-1,5-naphthyridin-3-yl)methyl)piperazin-1-yl)-N-(spiro[3.3]heptan-2-yl)picolinamide] | 0.7 | 17.6 | 98.8
CCc1cc2ncc(CN3CCN(c4ccc(NC(=O)[C@@H]5CC5(F)F)nc4)CC3)cc2[nH]c1=O (single isomer, unassigned) [Compound 50] | 0.69 | 3 | 92.9
CCc1cc2ncc(CN3CCN(c4cnc(C(=O)NC)c(F)c4)CC3)cc2[nH]c1=O [Compound 6, 5-(4-((7-ethyl-6-oxo-5,6-dihydro-1,5-naphthyridin-3-yl)methyl)piperazin-1-yl)-3-fluoro-N-methylpicolinamide] | 0.56 | 10 | 85.7
CCc1cc2ncc(CN3CCN(c4ccc(-c5nnc(C)[nH]5)nc4)CC3)cc2[nH]c1=O [Compound 42, 3-ethyl-7-((4-(6-(5-methyl-4H-1,2,4-triazol-3-yl)pyridin-3-yl)piperazin-1-yl)methyl)-1,5-naphthyridin-2 (1H)-one] | 0.67 | 24.1 | 84.1
CCc1cc2ncc(CN3CCN(c4ccc(-c5cnn[nH]5)nc4)CC3)cc2[nH]c1=O [Compound 29, 7-((4-(6-(1H-1,2,3-triazol-5-yl)pyridin-3-yl)piperazin-1-yl)methyl)-3-ethyl-1,5-naphthyridin-2 (1H)-one] | 0.45 | – | –
CCc1cc2ncc(CN3CCN(c4cnc(C(=O)NC)cc4F)CC3)cc2[nH]c1=O [Compound 12, 5-(4-((7-ethyl-6-oxo-5,6-dihydro-1,5-naphthyridin-3-yl)methyl)piperazin-1-yl)-4-fluoro-N-methylpicolinamide] | 1.6 | – | –
CCc1cc2ncc(CN3CCN(c4ccc(NC(=O)[C@H]5CCN(C)C5)nc4)CC3)cc2[nH]c1=O [Compound 36, (S)—N-(5-(4-((7-ethyl-6-oxo-5,6-dihydro-1,5-naphthyridin-3-yl)methyl)piperazin-1-yl)pyridin-2-yl)-1-methylpyrrolidine-3-carboxamide] | 0.58 | – | –

More lines, main results first:

IC50 [1] [nM] | IC50 [2] [nM] | SMILES | inhibition at 10 µM [2] [%]
0.67 | 1.4 | CCc1cc2ncc(CN3CCN(c4ccc(C(=O)Nc5cnn(C)c5)nc4)CC3)cc2[nH]c1=O [Compound 23, 5-(4-((7-ethyl-6-oxo-5,6-dihydro-1,5-naphthyridin-3-yl)methyl)piperazin-1-yl)-N-(1-methyl-1H-pyrazol-4-yl)picolinamide] | 84.2
0.84 | 2.3 | CCc1cc2ncc(CN3CCN(c4ccc(C(=O)N[C@H]5C[C@H]5F)nc4)CC3)cc2[nH]c1=O [Compound 41, 5-(4-((7-ethyl-6-oxo-5,6-dihydro-1,5-naphthyridin-3-yl)methyl)piperazin-1-yl)-N-((1S,2R)-2-fluorocyclopropyl)picolinamide] | 92.1
0.74 | 3.1 | CCc1cc2ncc(CN3CCN(c4ccc(NC(=O)c5cnn(C)c5)nc4)CC3)cc2[nH]c1=O [Compound 33, N-(5-(4-((7-ethyl-6-oxo-5,6-dihydro-1,5-naphthyridin-3-yl)methyl)piperazin-1-yl)pyridin-2-yl)-1-methyl-1H-pyrazole-4-carboxamide] | 90
0.77 | 1.2 | CCc1cc2ncc(CN3CCN(c4ccc(C(=O)NC56CC(C5)C6)nc4)CC3)cc2[nH]c1=O [Compound 39, N-(bicyclo[1.1.1]pentan-1-yl)-5-(4-((7-ethyl-6-oxo-5,6-dihydro-1,5-naphthyridin-3-yl)methyl)piperazin-1-yl)picolinamide] | 99.1
0.61 | 5.6 | CCc1cc2ncc(CN3CCN(c4ccc(C(=O)NCC5CC5)nc4)CC3)cc2[nH]c1=O [Compound 40, N-(cyclopropylmethyl)-5-(4-((7-ethyl-6-oxo-5,6-dihydro-1,5-naphthyridin-3-yl)methyl)piperazin-1-yl)picolinamide] | 99.3
0.88 | 16 | CCc1cc2ncc(CN3CCN(c4ccc(C(=O)NC5CC(F)(F)C5)nc4)CC3)cc2[nH]c1=O [Compound 25, N-(3,3-difluorocyclobutyl)-5-(4-((7-ethyl-6-oxo-5,6-dihydro-1,5-naphthyridin-3-yl)methyl)piperazin-1-yl)picolinamide] | 99
0.54 | 6 | CCc1cc2ncc(CN3CCN(c4ccc(C(=O)N[C@@H]5C[C@@H]5F)nc4)CC3)cc2[nH]c1=O [Compound 11, 5-(4-((7-ethyl-6-oxo-5,6-dihydro-1,5-naphthyridin-3-yl)methyl)piperazin-1-yl)-N-((1R,2S)-2-fluorocyclopropyl)picolinamide] | 85.2
0.73 | 9 | CCc1cc2ncc(CN3CCN(c4ccc(C(=O)NCCOC)nc4)CC3)cc2[nH]c1=O [Compound 24, 5-(4-((7-ethyl-6-oxo-5,6-dihydro-1,5-naphthyridin-3-yl)methyl)piperazin-1-yl)-N-(2-methoxyethyl)picolinamide] | 82.3
0.56 | 17 | CCc1cc2ncc(CN3CCN(c4ccc(C(=O)NC5CCC5)nc4)CC3)cc2[nH]c1=O [Compound 10, N-cyclobutyl-5-(4-((7-ethyl-6-oxo-5,6-dihydro-1,5-naphthyridin-3-yl)methyl)piperazin-1-yl)picolinamide] | 94.2
0.51 | 12 | CCc1cc2ncc(CN3CCN(c4ccc(C(=O)NC5CNC5)nc4)CC3)cc2[nH]c1=O [Compound 22, N-(azetidin-3-yl)-5-(4-((7-ethyl-6-oxo-5,6-dihydro-1,5-naphthyridin-3-yl)methyl)piperazin-1-yl)picolinamide] | 89.4
0.71 | – | CCc1cc2ncc(CN3CCN(c4ccc(NC(=O)NC)nc4)CC3)cc2[nH]c1=O [Compound 14, 1-(5-(4-((7-ethyl-6-oxo-5,6-dihydro-1,5-naphthyridin-3-yl)methyl)piperazin-1-yl)pyridin-2-yl)-3-methylurea] | –

Reference: patent US20240400586A1, “HETEROARYL DERIVATIVE PARP INHIBITOR AND USE THEREOF” (HAISCO PHARMACEUTICAL GROUP CO., LTD., priority 2021, published 2024)
